Results from PubChem BioAssay AID743394 (Broad Institute, 2014).
Active and inactive are the calls of the source.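 How the source made its calls: active means 40% activation versus positive control reached by fitted dose-response curve at or below highest valid tested dose; inconclusive means poor fit quality, or flat fit with activation between 30% and 70%; inactive means the rest.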

Test: inactive X chromosome reactivation in XiGFP fibroblasts, dose response, imaging, 68-5-11 mouse fibroblasts, GFP, cherry-pick (AID 743394);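 further: sensitizer 5-aza-dC present in the wells at 0.5 mM final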
Conditions: 68-5-11 mouse fibroblast XiGFP reporter, % GFP-positive imaging, 3 d; at 19.5 µM (top of the series)
In the case of `OCC[n+]1c2ccccc2nc2ccc(N3CCOCC3)cc21`, the activation is reported as 0.02% (inactive).

Same assay, conditions: 68-5-11 mouse fibroblast XiGFP reporter, % GFP-positive imaging, 3 d; at 19.5 µM (top of the series); cells co-treated with 5-aza-dC sensitizer; scaled: neutral wells 0, ellipticine wells 100
With `O=c1c2cc(-c3ccccc3)sc2nc2n1N=C(c1ccccc1)CS2` the activation was 1.54% (inactive). In the case of `C=C(C)c1cccc(C(C)(C)NC(=O)Nc2nnc(C(C)C)s2)c1`, the activation is reported as -0.035% (inactive). In the case of `N/C(=N\c1nc(CSc2nc3ccccc3s2)cc(=O)[nH]1)Nc1ccc(F)cc1`, the activation is reported as 8.8% (inactive). In the case of `Nc1nc(C2CCOCC2)cs1`, the activation is reported as -0.032% (inactive). With `CCC(C)c1nc2ccsc2c(N2CCOC2=O)c1-c1ccccc1` (stereo not given) the activation was -0.032% (inactive). With `Cc1ccsc1/C=N/n1c(-c2cc(-c3ccccc3)n[nH]2)n[nH]c1=S` the activation was 0.001% (inactive). With `COCCNC(=O)CSc1nc2scc(-c3ccccc3)c2c(=O)[nH]1` the activation was -0.001% (inactive). In the case of `COc1ccc(OCCN2CCC(C(=O)NC(c3ccc(C)cc3)c3ccccn3)CC2)cc1` (stereo not given), the activation is reported as 0.883% (inactive). In the case of `Cc1occc1C(=O)N/N=C/C(Br)=C\c1ccccc1`, the activation is reported as -0.024% (inactive). In the case of `CCc1ccc(NS(=O)(=O)c2cccc3nonc23)cc1`, the activation is reported as -0.121% (inactive). With `CCOC(=O)c1sc(Nc2ccc(Br)cc2)nc1C` the activation was 0.082% (inactive). For `C[C@H](NC(=O)C[C@@H]1CC[C@H](NC(=O)Cc2ccccn2)[C@@H](CO)O1)c1ccccc1`, the activation was 0.019% (inactive). For `O=C(Nc1ccccc1)N1C[C@@H]2[C@H](c3ccccc31)[C@H](CO)N2C(=O)c1ccccc1F`, the activation was 0.2% (inactive). For `Cc1nn(-c2ccccc2)c(N)c1N=O`, the activation was -0.053% (inactive). In the case of `COc1ccc(C(=O)CN2Cc3ccccc3C2=N)cc1`, the activation is reported as 0.166% (inactive). In the case of `Cc1ccc(S(=O)(=O)Nc2ccc3c(c2)C(=O)N([C@H](C)CO)C[C@@H](C)[C@@H](CN(C)Cc2ccc(Cl)c(Cl)c2)OCCCC[C@H](C)O3)cc1`, the activation is reported as -0.031% (inactive). With `COc1ccc(C)c(-n2c(=O)n(Cc3ccccc3)c(=O)c3[nH]cnc32)c1` the activation was -0.006% (inactive). In the case of `CCSc1nnc(NC(=O)c2cc(OC)c(OC)c(OC)c2)s1`, the activation is reported as 0.316% (inactive). For `S=C(NCc1ccco1)Nc1cccc(Cl)c1Cl`, the activation was -0.047% (inactive). For `Cc1ccc(/C=C/C(=O)N2CCN(S(=O)(=O)/C=C/c3ccccc3)CC2)o1`, the activation was 0.382% (inactive). For `NNC(=O)c1sc(-c2ccc(Cl)cc2)cc1N`, the activation was 2.31% (inactive). With `Cn1c(NC(=O)c2ccc(F)cc2)c(-c2ccccn2)c(=O)c2ccccc21` the activation was 0.155% (inactive). For `CN1c2ccc(-c3ccc(C#N)cc3)cc2[C@@H]2[C@@H](CCN2C(=O)NC2CCCCC2)[C@H]1CO`, the activation was 0.002% (inactive). For `Cc1cc(NC(=O)c2ccccc2)n(-c2nc3ccccc3[nH]2)n1`, the activation was -0.016% (inactive). In the case of `O=C(N/N=C/c1ccc(O)c2ncccc12)c1cccc(Br)c1`, the activation is reported as -0.037% (inactive). In the case of `CCN(CC)c1ccc(/C=C/C(=O)C2C(=O)C=C(C)OC2=O)cc1` (stereo not given), the activation is reported as 3.58% (inactive). With `Cc1ccc(S(=O)(=O)N(C)c2ccc(C)c([N+](=O)[O-])c2)cc1` the activation was 0.488% (inactive). With `C[C@H](CO)N1C[C@H](C)[C@H](CN(C)Cc2ccccc2)Oc2ccc(NS(C)(=O)=O)cc2C1=O` the activation was -0.035% (inactive). With `CN(C1CCCCC1)S(=O)(=O)c1ccc(C(=O)N2CCN(c3nc4ccccc4s3)CC2)cc1` the activation was 0.125% (inactive). For `COC(=O)c1cc(NS(=O)(=O)c2ccc(NC(C)=O)cc2)ccc1Cl`, the activation was -0.044% (inactive). In the case of `CC(C)C(NC(=O)c1ccc(F)cc1)C(=O)NCC1CCCO1` (stereo not given), the activation is reported as 0.21% (inactive). For `CCN1CCN(c2cc3nc(C)n(Cc4ccccc4)c(=O)c3cc2NC(=O)c2ccccc2F)CC1`, the activation was -0.127% (inactive). With `CO[C@@H]1CN(C)C(=O)c2cc(NS(C)(=O)=O)ccc2OC[C@H](C)N(C(=O)C2CCCC2)C[C@H]1C` the activation was 0.988% (inactive). For `C[C@@H]1CN([C@H](C)CO)C(=O)c2cc(NS(=O)(=O)c3ccccc3)ccc2O[C@@H](C)CCCCO[C@@H]1CN(C)Cc1ccc2c(c1)OCO2`, the activation was 0% (inactive). In the case of `Cc1cc(-c2nc(C)c(-c3nnc(SCC(=O)Nc4ccc(Cl)cc4)n3C)s2)no1`, the activation is reported as 0.023% (inactive). For `O=c1[nH]cnc2c1ncn2[C@H]1CC[C@@H](CO)O1`, the activation was -0.002% (inactive). In the case of `COc1cc(CNc2nc3ccccc3n2C)cc(OC)c1OC`, the activation is reported as 0.013% (inactive). With `Cc1ccc(NC(=O)c2ccc(=O)[nH]c2)cc1S(=O)(=O)N1CCCCCC1` the activation was 0.105% (inactive). In the case of `C[C@H]1CCCCO[C@@H](CN(C)C(=O)Nc2ccc(C(F)(F)F)cc2)[C@@H](C)CN([C@@H](C)CO)C(=O)c2cc(NC(=O)CCC(F)(F)F)ccc2O1`, the activation is reported as 0.048% (inactive). With `O=[N+]([O-])c1ccccc1-c1ccc(C(=S)N2CCN(c3ccccc3)CC2)o1` the activation was 0.417% (inactive). With `COc1ccc(C(=O)N/N=C/c2cc(Br)ccc2O)cc1OC` the activation was -0.037% (inactive). For `Cc1cccc(-c2ccc([C@H]3[C@H](CO)N4CCCCN(C(=O)NC(C)C)C[C@@H]34)cc2)c1`, the activation was 0.105% (inactive). For `CC(=O)c1ccc(NS(=O)(=O)c2ccc(N/C=C/C(=O)c3ccc(F)cc3)cc2)cc1`, the activation was 0.351% (inactive). For `Cc1ccc(S(=O)(=O)N2CCN(C(=O)COC(=O)c3ccccc3OC(F)F)CC2)c(C)c1`, the activation was -0.006% (inactive). With `COc1ccc2c3c([nH]c2c1)[C@H](CO)N(C(=O)Nc1ccc(F)cc1)CC31CN(CC2CC2)C1` the activation was -0.035% (inactive). For `COC(C(=O)NCc1ccc(C)cc1)c1ccccc1` (stereo not given), the activation was 0.114% (inactive). With `Cc1ccc(Nc2nc(N)nc(COC(=O)C3=COCCO3)n2)cc1` the activation was 0.004% (inactive). For `CCc1ccccc1OCC(=O)Nc1ccc(N2CCCC2)cc1C`, the activation was 0.109% (inactive). With `Cc1ccc(S(=O)(=O)Nc2ccc3c(c2)C(=O)N([C@@H](C)CO)C[C@@H](C)[C@@H](CN(C)Cc2ccc(C(=O)Nc4ccccc4N)cc2)O3)cc1` the activation was 1.51% (inactive). In the case of `COC(=O)c1c(NC(=O)c2ccc(C)cc2)csc1C`, the activation is reported as 0.018% (inactive). In the case of `O=C(NNC(=O)c1ccccc1Cl)c1ccccc1Cl`, the activation is reported as -0.034% (inactive). In the case of `C[C@@H]1CN([C@H](C)CO)C(=O)c2cc(NC(=O)Nc3ccc4c(c3)OCO4)ccc2O[C@@H](C)CCCCO[C@@H]1CN(C)C(=O)Cc1ccccc1`, the activation is reported as 0.577% (inactive). In the case of `O=C(N/N=C\c1c(O)ccc2ccccc12)c1ccc(S(=O)(=O)N2CCCCC2)cc1`, the activation is reported as 12.4% (inactive). With `CC1=NN(c2ccc(C)c(C)c2)C(=O)/C1=C\C=C\c1ccc([N+](=O)[O-])o1` the activation was -0.033% (inactive). For `Cc1ccc(-c2nc(CS(=O)CC(=O)NCCCN3CC(C)CC(C)C3)c(C)o2)cc1` (stereo not given), the activation was 0.4% (inactive). With `C[C@@H]1COc2cccc(NCCO)c2S(=O)(=O)N1` the activation was 0.028% (inactive). For `C[C@H]1CN([C@@H](C)CO)C(=O)c2cc(NC(=O)CCCCCC(=O)Nc3ccccc3N)ccc2O[C@H]1CN(C)C(=O)Nc1ccccc1`, the activation was 0.04% (inactive). In the case of `O=C(O)c1ccc(COc2ccccc2C=C2C(=O)c3ccccc3C2=O)cc1`, the activation is reported as 0.163% (inactive). In the case of `O=C(Nc1cccc(S(=O)(=O)NC2=NCCC2)c1)C1CC(=O)N(c2ccc3c(c2)OCCO3)C1` (stereo not given), the activation is reported as 0.339% (inactive). With `CNc1ncnc(Sc2ccc(Cl)cc2)c1[N+](=O)[O-]` the activation was 0.297% (inactive). For `O=C(O)c1ccccc1C1Nc2ccccc2C(=O)N1CCCN1CCOCC1` (stereo not given), the activation was 0.018% (inactive). In the case of `CC1Oc2ccccc2C=C1/C=N\NC(=O)c1cccnc1` (stereo not given), the activation is reported as 0.047% (inactive). In the case of `COc1ccc(CN(C)C[C@H]2OCCCC[C@@H](C)Oc3ccc(NC(=O)Nc4ccc(F)cc4)cc3C(=O)N([C@@H](C)CO)C[C@H]2C)cc1`, the activation is reported as 3.19% (inactive). With `Nc1ccccc1C#CC(=O)c1ccccc1` the activation was -0.07% (inactive). With `Cc1cccc2sc(N(CCCN(C)C)C(=O)CN3C(=O)c4ccccc4C3=O)nc12` the activation was -0.047% (inactive). In the case of `CSc1ccc(CN2C(=O)NC3(CCCCCCC3)C2=O)cc1`, the activation is reported as 0.616% (inactive). In the case of `COc1ccc2c(c1)c(/C=N/Nc1nc3ccccc3[nH]1)c(C)n2C`, the activation is reported as 5.21% (inactive). With `Cn1c(=O)c(C#N)c(-c2ccc(F)cc2)c2cc(C(=O)c3cc(Cl)cc(Cl)c3O)cnc21` the activation was -0.044% (inactive). With `NS(=O)(=O)c1cccc(NC(=O)COC(=O)Cc2ccc(S(=O)(=O)N3CCOCC3)s2)c1` the activation was 0.056% (inactive). For `C=CC[C@@H](CC(=O)N(CCO)Cc1ccccc1)C(=O)NCCOC(=O)[C@@H](CC=C)Cc1ccc(F)cc1`, the activation was -0.009% (inactive). In the case of `O=C(c1ccc(Br)cc1)c1cc([N+](=O)[O-])ccc1N1CCOCC1`, the activation is reported as 4.21% (inactive). In the case of `Cc1cccn2c(=O)c3cc(C(=O)NCc4ccc(F)cc4)c(=N)n(CCCN4CCOCC4)c3nc12`, the activation is reported as 0.061% (inactive). In the case of `COc1ccc(NC(=O)COc2ccc(C)c(C)c2)cc1S(=O)(=O)N1CCCCC1`, the activation is reported as 0.164% (inactive). In the case of `CCc1nc(C)cn1S(=O)(=O)c1ccc([N+](=O)[O-])cc1`, the activation is reported as -0.053% (inactive). In the case of `Clc1ccc(-c2nc(-c3ccncc3)no2)c(Cl)c1`, the activation is reported as -0.034% (inactive). For `CCOC(=O)c1cnc(-c2ccc(C(F)(F)F)cn2)[nH]c1=O`, the activation was -0.017% (inactive). With `COCCN(C(=S)Nc1cccc(C)c1)C(C)c1cccnc1` (stereo not given) the activation was 0.005% (inactive). With `COc1cc(/C=C(\C#N)c2nc3ccccc3o2)ccc1O` the activation was 1.85% (inactive). With `COc1ccc(/C=C\c2onc(C)c2S(=O)(=O)N2CCC(C(=O)NCc3ccco3)CC2)cc1` the activation was 0.355% (inactive). In the case of `O=C(O)c1ccccc1NS(=O)(=O)c1ccc(N/N=C/c2cccc(O)c2O)c([N+](=O)[O-])c1`, the activation is reported as -0.035% (inactive). With `O=[N+]([O-])c1ccc(Sc2nnnn2-c2ccccc2)nc1` the activation was -0.121% (inactive). For `C[C@@H]1CN([C@@H](C)CO)C(=O)c2cc(NS(=O)(=O)c3cn(C)cn3)ccc2O[C@@H](C)CCCCO[C@H]1CN(C)C(=O)c1ccccc1`, the activation was 0.016% (inactive). In the case of `COc1ccccc1N1CCN(C(=O)CN2C(=O)c3cccc4cccc(c34)C2=O)CC1`, the activation is reported as 0.077% (inactive). In the case of `COC(=O)c1ccc(-n2c(C)cc(C(=O)COC(=O)C3=COCCO3)c2C)cc1`, the activation is reported as -0.033% (inactive).
